From ChEMBL document CHEMBL6127052, “Discovery of membrane-targeting amphiphilic honokiol derivatives containing an oxazolethione moiety to combat methicillin-resistant Staphylococcus aureus (MRSA) infections” (Eur J Med Chem, 2024)

Test system: Staphylococcus aureus
Assay: Antibacterial activity against Staphylococcus aureus ATCC 29213 by CLSI based micro-broth dilution method
Assay type: functional

Row | SMILES | MIC [µg/mL]
1 | C=CCc1cc(-c2ccc(OCCC[N+](C)(C)CC(=O)NCCCC)c(CC=C)c2)c2oc(=S)n(Cc3ccc(C(F)(F)F)cc3)c2c1.[Br-] | 8
2 | C=CCc1cc(-c2ccc(OCCC[N+](C)(C)CC(=O)NCCCC)c(CC=C)c2)c2oc(=S)n(Cc3ccccc3Cl)c2c1.[Br-] | 4

Test system: Staphylococcus aureus
Assay: Antibacterial activity against methicillin-resistant Staphylococcus aureus N315 by CLSI based micro-broth dilution method
Assay type: functional

Row | SMILES | MIC [µg/mL]
3 | C=CCc1cc(-c2ccc(OCCC[N+](C)(C)CC(=O)NCCCC)c(CC=C)c2)c2oc(=S)n(Cc3ccc(C(F)(F)F)cc3)c2c1.[Br-] | 16
4 | C=CCc1cc(-c2ccc(OCCC[N+](C)(C)CC(=O)NCCCC)c(CC=C)c2)c2oc(=S)n(Cc3ccccc3Cl)c2c1.[Br-] | 16

Test system: Staphylococcus aureus
Assay: Antibacterial activity against methicillin-resistant Staphylococcus aureus clinical isolate M11 by CLSI based micro-broth dilution method
Assay type: functional

Row | SMILES | MIC [µg/mL]
5 | C=CCc1cc(-c2ccc(OCCC[N+](C)(C)CC(=O)NCCCC)c(CC=C)c2)c2oc(=S)n(Cc3ccc(C(F)(F)F)cc3)c2c1.[Br-] | 4
6 | C=CCc1cc(-c2ccc(OCCC[N+](C)(C)CC(=O)NCCCC)c(CC=C)c2)c2oc(=S)n(Cc3ccccc3Cl)c2c1.[Br-] | 4

Test system: Staphylococcus aureus
Assay: Antibacterial activity against methicillin-resistant Staphylococcus aureus clinical isolate M12 by CLSI based micro-broth dilution method
Assay type: functional

Row | SMILES | MIC [µg/mL]
7 | C=CCc1cc(-c2ccc(OCCC[N+](C)(C)CC(=O)NCCCC)c(CC=C)c2)c2oc(=S)n(Cc3ccc(C(F)(F)F)cc3)c2c1.[Br-] | 4
8 | C=CCc1cc(-c2ccc(OCCC[N+](C)(C)CC(=O)NCCCC)c(CC=C)c2)c2oc(=S)n(Cc3ccccc3Cl)c2c1.[Br-] | 4

Test system: Staphylococcus aureus
Assay: Antibacterial activity against methicillin-resistant Staphylococcus aureus clinical isolate M13 by CLSI based micro-broth dilution method
Assay type: functional

Row | SMILES | MIC [µg/mL]
9 | C=CCc1cc(-c2ccc(OCCC[N+](C)(C)CC(=O)NCCCC)c(CC=C)c2)c2oc(=S)n(Cc3ccc(C(F)(F)F)cc3)c2c1.[Br-] | 4
10 | C=CCc1cc(-c2ccc(OCCC[N+](C)(C)CC(=O)NCCCC)c(CC=C)c2)c2oc(=S)n(Cc3ccccc3Cl)c2c1.[Br-] | 8

Test system: Staphylococcus aureus
Assay: Antibacterial activity against methicillin-resistant Staphylococcus aureus clinical isolate M14 by CLSI based micro-broth dilution method
Assay type: functional

Row | SMILES | MIC [µg/mL]
11 | C=CCc1cc(-c2ccc(OCCC[N+](C)(C)CC(=O)NCCCC)c(CC=C)c2)c2oc(=S)n(Cc3ccc(C(F)(F)F)cc3)c2c1.[Br-] | 8
12 | C=CCc1cc(-c2ccc(OCCC[N+](C)(C)CC(=O)NCCCC)c(CC=C)c2)c2oc(=S)n(Cc3ccccc3Cl)c2c1.[Br-] | 16

Test system: Staphylococcus aureus
Assay: Antibacterial activity against methicillin-resistant Staphylococcus aureus clinical isolate M16 by CLSI based micro-broth dilution method
Assay type: functional

Row | SMILES | MIC [µg/mL]
13 | C=CCc1cc(-c2ccc(OCCC[N+](C)(C)CC(=O)NCCCC)c(CC=C)c2)c2oc(=S)n(Cc3ccc(C(F)(F)F)cc3)c2c1.[Br-] | 8
14 | C=CCc1cc(-c2ccc(OCCC[N+](C)(C)CC(=O)NCCCC)c(CC=C)c2)c2oc(=S)n(Cc3ccccc3Cl)c2c1.[Br-] | 4

Test system: Staphylococcus aureus
Assay: Antibacterial activity against methicillin-resistant Staphylococcus aureus clinical isolate M17 by CLSI based micro-broth dilution method
Assay type: functional

Row | SMILES | MIC [µg/mL]
15 | C=CCc1cc(-c2ccc(OCCC[N+](C)(C)CC(=O)NCCCC)c(CC=C)c2)c2oc(=S)n(Cc3ccc(C(F)(F)F)cc3)c2c1.[Br-] | 16
16 | C=CCc1cc(-c2ccc(OCCC[N+](C)(C)CC(=O)NCCCC)c(CC=C)c2)c2oc(=S)n(Cc3ccccc3Cl)c2c1.[Br-] | 16

Test system: Staphylococcus aureus
Assay: Antibacterial activity against methicillin-resistant Staphylococcus aureus clinical isolate M20 by CLSI based micro-broth dilution method
Assay type: functional

Row | SMILES | MIC [µg/mL]
17 | C=CCc1cc(-c2ccc(OCCC[N+](C)(C)CC(=O)NCCCC)c(CC=C)c2)c2oc(=S)n(Cc3ccc(C(F)(F)F)cc3)c2c1.[Br-] | 4
18 | C=CCc1cc(-c2ccc(OCCC[N+](C)(C)CC(=O)NCCCC)c(CC=C)c2)c2oc(=S)n(Cc3ccccc3Cl)c2c1.[Br-] | 8

Test system: Staphylococcus aureus
Assay: Antibacterial activity against methicillin-resistant Staphylococcus aureus clinical isolate M21 by CLSI based micro-broth dilution method
Assay type: functional

Row | SMILES | MIC [µg/mL]
19 | C=CCc1cc(-c2ccc(OCCC[N+](C)(C)CC(=O)NCCCC)c(CC=C)c2)c2oc(=S)n(Cc3ccc(C(F)(F)F)cc3)c2c1.[Br-] | 8
20 | C=CCc1cc(-c2ccc(OCCC[N+](C)(C)CC(=O)NCCCC)c(CC=C)c2)c2oc(=S)n(Cc3ccccc3Cl)c2c1.[Br-] | 4

Test system: Staphylococcus aureus
Assay: Antibacterial activity against methicillin-resistant Staphylococcus aureus clinical isolate M22 by CLSI based micro-broth dilution method
Assay type: functional

Row | SMILES | MIC [µg/mL]
21 | C=CCc1cc(-c2ccc(OCCC[N+](C)(C)CC(=O)NCCCC)c(CC=C)c2)c2oc(=S)n(Cc3ccc(C(F)(F)F)cc3)c2c1.[Br-] | 16
22 | C=CCc1cc(-c2ccc(OCCC[N+](C)(C)CC(=O)NCCCC)c(CC=C)c2)c2oc(=S)n(Cc3ccccc3Cl)c2c1.[Br-] | 8

Test system: Staphylococcus aureus
Assay: Antibacterial activity against methicillin-resistant Staphylococcus aureus clinical isolate M23 by CLSI based micro-broth dilution method
Assay type: functional

Row | SMILES | MIC [µg/mL]
23 | C=CCc1cc(-c2ccc(OCCC[N+](C)(C)CC(=O)NCCCC)c(CC=C)c2)c2oc(=S)n(Cc3ccc(C(F)(F)F)cc3)c2c1.[Br-] | 8
24 | C=CCc1cc(-c2ccc(OCCC[N+](C)(C)CC(=O)NCCCC)c(CC=C)c2)c2oc(=S)n(Cc3ccccc3Cl)c2c1.[Br-] | 4

Test system: Escherichia coli
Assay: Antibacterial activity against Escherichia coli ATCC 25922 by CLSI based micro-broth dilution method
Assay type: functional

Row | SMILES | MIC [µg/mL]
25 | C=CCc1cc(-c2ccc(OCCC[N+](C)(C)CC(=O)NCCCC)c(CC=C)c2)c2oc(=S)n(Cc3ccc(C(F)(F)F)cc3)c2c1.[Br-] | > 128
26 | C=CCc1cc(-c2ccc(OCCC[N+](C)(C)CC(=O)NCCCC)c(CC=C)c2)c2oc(=S)n(Cc3ccccc3Cl)c2c1.[Br-] | > 128

Test system: not listed separately
Assay: Hemolytic activity in sheep erythrocytes incubated for 1 hr by absorbance based assay
Assay type: toxicity, cell-based, Ovis aries, Erythrocyte

Row | SMILES | HC50 at 1 h [µg/mL]
27 | C=CCc1cc(-c2ccc(OCCC[N+](C)(C)CC(=O)NCCCC)c(CC=C)c2)c2oc(=S)n(Cc3ccc(C(F)(F)F)cc3)c2c1.[Br-] | > 160
28 | C=CCc1cc(-c2ccc(OCCC[N+](C)(C)CC(=O)NCCCC)c(CC=C)c2)c2oc(=S)n(Cc3ccccc3Cl)c2c1.[Br-] | 965

Test system: not listed separately
Assay: Selectivity index, ratio of HC50 for hemolytic activity in sheep erythrocytes to MIC for antibacterial activity against Staphylococcus aureus ATCC 29213
Assay type: toxicity, cell-based, RBC

Row | SMILES | selectivity ratio
29 | C=CCc1cc(-c2ccc(OCCC[N+](C)(C)CC(=O)NCCCC)c(CC=C)c2)c2oc(=S)n(Cc3ccc(C(F)(F)F)cc3)c2c1.[Br-] | > 20
30 | C=CCc1cc(-c2ccc(OCCC[N+](C)(C)CC(=O)NCCCC)c(CC=C)c2)c2oc(=S)n(Cc3ccccc3Cl)c2c1.[Br-] | 241
